Laboratory results taken from paper PMC2818873 (Bioorganic & medicinal chemistry, 2009).

How the values were obtained:
P. carinii DHFR = target: T1, P. carinii DHFR (Pneumocystis carinii, UniProt P16184); format: biochemical; details: IC50 rat liver DHFR / IC50 P. carinii DHFR
T1 sequence (P16184 1-206): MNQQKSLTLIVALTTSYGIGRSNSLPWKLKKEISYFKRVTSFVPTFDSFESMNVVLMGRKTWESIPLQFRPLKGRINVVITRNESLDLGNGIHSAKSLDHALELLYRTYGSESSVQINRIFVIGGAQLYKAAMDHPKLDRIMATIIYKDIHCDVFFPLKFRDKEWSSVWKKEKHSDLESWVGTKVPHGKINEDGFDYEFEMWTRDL

[1] = system: folyl poly-γ-glutamate synthetase (FPGS); details: cited from earlier work

SMILES	Selectivity ratio rl/pc (P. carinii DHFR)	FPGS substrate activity [1]
Cc1c(Sc2cccc3ccccc23)oc2nc(N)nc(N)c12 [Compound 6, 2,4-Diamino-5-methyl-6-(1-naphthylthio)furo[2,3-d]pyrimidine]	>10	
Cc1c(Sc2ccc(C(=O)N[C@@H](CCC(=O)O)C(=O)O)cc2)[nH]c2nc(N)nc(N)c12 [Compound 4]		reasonable FPGS substrate activity
